Experimental data reported in patent US7223865B2, “Chromogenic compounds, and use thereof as enzyme substrates” (Biomerieux, priority 2003, dated 2007).

What was measured:
Test in all cases: L-alanine-aminopeptidase activity on gelled medium, Example 8
Format in all cases: cell-based
Set-up in all cases: key to growth: ++ means good growth; + means moderate growth; +/− means poor growth; NG means no growth
[1] = tested on: Klebsiella pneumoniae (NCTC 10896)
Description: (§1) A gelled medium comprising these three substrates is prepared as follows: 30 mg of each substrate are dissolved (heating) in 10 ml of sterile distilled water. Ten ml of this solution are then added to 90 ml of Columbia agar kept molten at 50° C.
(§2) Various strains of microorganisms derived from the NCTC collection (National Collection of Type Cultures, Colindale, UK) were seeded onto the media thus obtained according to multipoint inoculation: for each strain, a drop of 10 μl of a suspension at 0.5 McFarland is deposited onto each of the culture media.
(§3) The colonies formed were examined visually after incubation for 24 h and 48 h. The color and the growth of these colonies were noted.

[2] = tested on: E. coli O157 (NCTC 12079)
Description: as §1, §2, §3

[3] = tested on: Shigella sonnei (NCTC 9774)
Description: as §1, §2, §3

[4] = tested on: Enterococcus faecalis (NCTC 12697)
Description: as §1, §2, §3

[5] = tested on: Salmonella poona (NCTC 4840)
Description: as §1, §2, §3

[6] = tested on: Pseudomonas aeruginosa (NCTC 10662)
Description: as §1, §2, §3

[7] = tested on: Enterococcus faecium (NCTC 7171)
Description: as §1, §2, §3

[8] = tested on: Staphylococcus aureus (NCTC 11939)
Description: as §1, §2, §3

[9] = tested on: Enterobacter cloacae (NCTC 11936)
Description: as §1, §2, §3

[10] = tested on: Serratia marcescens (NCTC 10211)
Description: as §1, §2, §3

[11] = tested on: Burkholderia cepacia (NCTC 10743)
Description: as §1, §2, §3

[12] = tested on: Salmonella typhimurium (NCTC 74)
Description: as §1, §2, §3

[13] = tested on: Enterococcus faecalis (NCTC 755)
Description: as §1, §2, §3

[14] = tested on: Staphylococcus aureus (NCTC 6571)
Description: as §1, §2, §3

[15] = tested on: Listeria monocytogenes (NCTC 11994)
Description: as §1, §2, §3

For `C[C@H](N)C(=O)N[C@@H](C)C(=O)N[C@@H](C)C(=O)Nc1ccc(-c2c3ccccc3[n+](C)c3ccccc23)cc1.[Cl-]` [L-Ala-L-Ala-L-Ala-4-AP-10-MA], the color of colonies ([1]; 24 h) was “Orange”, the growth ([1]; 24 h) was “++” and the color of colonies ([1]; 48 h) was “Orange”. For the same compound, the growth ([1]; 48 h) was “++”, the color of colonies ([2]; 24 h) was “Orange” and the growth ([2]; 24 h) was “++”. The color of colonies ([2]; 48 h) was “Orange”, the growth ([2]; 48 h) was “++” and the color of colonies ([3]; 24 h) was “Orange”. For the same compound, the growth ([3]; 24 h) was “++”, the color of colonies ([3]; 48 h) was “Orange” and the growth ([3]; 48 h) was “++”. For the same compound, the color of colonies ([4]; 24 h) was “Colorless”, the growth ([4]; 24 h) was “++” and the color of colonies ([4]; 48 h) was “Colorless”. The growth ([4]; 48 h) was “++”, the color of colonies ([5]; 24 h) was “Orange” and the growth ([5]; 24 h) was “++”. For the same compound, the color of colonies ([5]; 48 h) was “Orange”, the growth ([5]; 48 h) was “++” and the color of colonies ([6]; 24 h) was “Orange”. For the same compound, the growth ([6]; 24 h) was “++”, the color of colonies ([6]; 48 h) was “Orange” and the growth ([6]; 48 h) was “++”. The color of colonies ([7]; 24 h) was “Colorless”, the growth ([7]; 24 h) was “++” and the color of colonies ([7]; 48 h) was “Colorless”. For the same compound, the growth ([7]; 48 h) was “++”, the color of colonies ([8]; 24 h) was “Colorless” and the growth ([8]; 24 h) was “++”. The color of colonies ([8]; 48 h) was “Colorless”, the growth ([8]; 48 h) was “++” and the color of colonies ([9]; 24 h) was “Orange”. For the same compound, the growth ([9]; 24 h) was “++”, the color of colonies ([9]; 48 h) was “Orange” and the growth ([9]; 48 h) was “++”. The color of colonies ([10]; 24 h) was “Orange”, the growth ([10]; 24 h) was “++” and the color of colonies ([10]; 48 h) was “Orange”. The growth ([10]; 48 h) was “++”, the color of colonies ([11]; 24 h) was “Orange” and the growth ([11]; 24 h) was “++”. For the same compound, the color of colonies ([11]; 48 h) was “Orange”, the growth ([11]; 48 h) was “++” and the color of colonies ([12]; 24 h) was “Orange”. For the same compound, the growth ([12]; 24 h) was “++”, the color of colonies ([12]; 48 h) was “Orange” and the growth ([12]; 48 h) was “++”. The color of colonies ([13]; 24 h) was “Colorless”, the growth ([13]; 24 h) was “++” and the color of colonies ([13]; 48 h) was “Colorless”. The growth ([13]; 48 h) was “++”, the color of colonies ([14]; 24 h) was “Colorless” and the growth ([14]; 24 h) was “++”. For the same compound, the color of colonies ([14]; 48 h) was “Colorless”, the growth ([14]; 48 h) was “++” and the color of colonies ([15]; 24 h) was “Colorless”. For the same compound, the growth ([15]; 24 h) was “++”, the color of colonies ([15]; 48 h) was “Colorless” and the growth ([15]; 48 h) was “++”.
In the case of `C[C@H](N)C(=O)N[C@@H](C)C(=O)Nc1ccc(-c2c3ccccc3[n+](C)c3ccccc23)cc1.[Cl-]` [L-Ala-L-Ala-4-AP-10-MA], the color of colonies ([1]; 24 h) is reported as “Orange”, the growth ([1]; 24 h) is reported as “++” and the color of colonies ([1]; 48 h) is reported as “Orange”. For the same compound, the growth ([1]; 48 h) was “++”, the color of colonies ([2]; 24 h) was “Orange” and the growth ([2]; 24 h) was “++”. For the same compound, the color of colonies ([2]; 48 h) was “Orange”, the growth ([2]; 48 h) was “++” and the color of colonies ([3]; 24 h) was “Orange”. For the same compound, the growth ([3]; 24 h) was “++”, the color of colonies ([3]; 48 h) was “Orange” and the growth ([3]; 48 h) was “++”. The color of colonies ([4]; 24 h) was “Colorless”, the growth ([4]; 24 h) was “++” and the color of colonies ([4]; 48 h) was “Colorless”. For the same compound, the growth ([4]; 48 h) was “++”, the color of colonies ([5]; 24 h) was “Orange” and the growth ([5]; 24 h) was “++”. The color of colonies ([5]; 48 h) was “Orange”, the growth ([5]; 48 h) was “++” and the color of colonies ([6]; 24 h) was “Orange”. For the same compound, the growth ([6]; 24 h) was “++”, the color of colonies ([6]; 48 h) was “Orange” and the growth ([6]; 48 h) was “++”. For the same compound, the color of colonies ([7]; 24 h) was “Colorless”, the growth ([7]; 24 h) was “++” and the color of colonies ([7]; 48 h) was “Colorless”. The growth ([7]; 48 h) was “++”, the color of colonies ([8]; 24 h) was “Colorless” and the growth ([8]; 24 h) was “++”. For the same compound, the color of colonies ([8]; 48 h) was “Colorless”, the growth ([8]; 48 h) was “++” and the color of colonies ([9]; 24 h) was “Orange”. For the same compound, the growth ([9]; 24 h) was “++”, the color of colonies ([9]; 48 h) was “Orange” and the growth ([9]; 48 h) was “++”. For the same compound, the color of colonies ([10]; 24 h) was “Orange”, the growth ([10]; 24 h) was “++” and the color of colonies ([10]; 48 h) was “Orange”. For the same compound, the growth ([10]; 48 h) was “++”, the color of colonies ([11]; 24 h) was “Orange” and the growth ([11]; 24 h) was “++”. For the same compound, the color of colonies ([11]; 48 h) was “Orange”, the growth ([11]; 48 h) was “++” and the color of colonies ([12]; 24 h) was “Orange”. The growth ([12]; 24 h) was “++”, the color of colonies ([12]; 48 h) was “Orange” and the growth ([12]; 48 h) was “++”. The color of colonies ([13]; 24 h) was “Colorless”, the growth ([13]; 24 h) was “++” and the color of colonies ([13]; 48 h) was “Colorless”. For the same compound, the growth ([13]; 48 h) was “++”, the growth ([14]; 24 h) was “NG” and the growth ([14]; 48 h) was “NG”. The color of colonies ([15]; 24 h) was “Colorless”, the growth ([15]; 24 h) was “++” and the color of colonies ([15]; 48 h) was “Colorless”. The growth ([15]; 48 h) was “++”.
